Results: patent US20240383905A1, “FGFR INHIBITORS AND METHODS OF USE THEREOF” (3H PHARMACEUTICALS CO., LTD., priority 2021, published 2024)
Where two headings read alike, the source gives them in different places.

Experiments:
FGFR2 = target: T1, FGFR2 (Homo sapiens, UniProt P21802); experiment: FGFR2 Biochemical Caliper Assay (KinEASE-TK kit); details: 0.07 nM FGFR2; compound incubated with protein 10 min, reaction 45 min at RT; read-out: FGFR2 Cliper IC50
T1 construct: purchased Carna 08-134

FGFR1 = target: T2, FGFR1 (Homo sapiens, UniProt P11362); experiment: FGFR1 Biochemical Caliper Assay (KinEASE-TK kit); details: ratio FGFR1/FGFR2 of the biochemical assay
T2 construct: purchased Carna 08-133
In short: (§1)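 KinEASE-TK HTRF readout: enzyme at 0.2 nM (FGFR1, FGFR3) preincubated 10 min at RT with 10-point 3-fold compound dilutions before TK-substrate/ATP start.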

FGFR3 = target: T3, FGFR3 (Homo sapiens, UniProt P22607); experiment: FGFR3 Biochemical Caliper Assay (KinEASE-TK kit); details: ratio FGFR3/FGFR2 of the biochemical assay
T3 construct: purchased Carna 08-135
In short: as §1

SNU16 cells = experiment: SNU16 Cancer Cell Line Proliferation Assay (CellTiter-Glo); format: cell-based
In short: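 Luminescent ATP read-out after 72 h at 37 °C gave IC50 values; compounds tested as 9 three-fold serial dilutions on 5000 SNU16 cells per well, with DMSO as control.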

T2 sequence (P11362 22-822): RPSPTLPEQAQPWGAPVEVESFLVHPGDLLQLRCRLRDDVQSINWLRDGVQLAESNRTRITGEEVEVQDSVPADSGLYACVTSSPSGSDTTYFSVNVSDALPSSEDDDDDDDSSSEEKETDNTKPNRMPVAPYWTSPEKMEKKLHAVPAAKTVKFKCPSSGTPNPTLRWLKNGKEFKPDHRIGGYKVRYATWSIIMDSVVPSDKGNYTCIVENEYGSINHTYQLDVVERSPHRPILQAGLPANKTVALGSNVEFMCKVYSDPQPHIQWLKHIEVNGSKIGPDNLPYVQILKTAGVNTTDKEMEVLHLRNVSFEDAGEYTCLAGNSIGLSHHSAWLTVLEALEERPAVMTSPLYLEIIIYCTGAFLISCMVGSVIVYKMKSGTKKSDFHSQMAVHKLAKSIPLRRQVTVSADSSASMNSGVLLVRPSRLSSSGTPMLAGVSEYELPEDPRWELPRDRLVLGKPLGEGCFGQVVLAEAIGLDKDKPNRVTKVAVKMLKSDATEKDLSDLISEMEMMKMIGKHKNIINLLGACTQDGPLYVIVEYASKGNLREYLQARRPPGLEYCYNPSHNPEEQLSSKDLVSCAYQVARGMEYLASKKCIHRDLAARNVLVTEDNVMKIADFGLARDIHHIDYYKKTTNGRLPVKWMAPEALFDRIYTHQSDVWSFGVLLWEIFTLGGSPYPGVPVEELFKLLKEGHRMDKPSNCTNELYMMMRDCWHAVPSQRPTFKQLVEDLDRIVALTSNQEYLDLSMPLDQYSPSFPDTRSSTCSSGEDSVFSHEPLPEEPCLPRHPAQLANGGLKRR
T1 sequence (P21802 22-821): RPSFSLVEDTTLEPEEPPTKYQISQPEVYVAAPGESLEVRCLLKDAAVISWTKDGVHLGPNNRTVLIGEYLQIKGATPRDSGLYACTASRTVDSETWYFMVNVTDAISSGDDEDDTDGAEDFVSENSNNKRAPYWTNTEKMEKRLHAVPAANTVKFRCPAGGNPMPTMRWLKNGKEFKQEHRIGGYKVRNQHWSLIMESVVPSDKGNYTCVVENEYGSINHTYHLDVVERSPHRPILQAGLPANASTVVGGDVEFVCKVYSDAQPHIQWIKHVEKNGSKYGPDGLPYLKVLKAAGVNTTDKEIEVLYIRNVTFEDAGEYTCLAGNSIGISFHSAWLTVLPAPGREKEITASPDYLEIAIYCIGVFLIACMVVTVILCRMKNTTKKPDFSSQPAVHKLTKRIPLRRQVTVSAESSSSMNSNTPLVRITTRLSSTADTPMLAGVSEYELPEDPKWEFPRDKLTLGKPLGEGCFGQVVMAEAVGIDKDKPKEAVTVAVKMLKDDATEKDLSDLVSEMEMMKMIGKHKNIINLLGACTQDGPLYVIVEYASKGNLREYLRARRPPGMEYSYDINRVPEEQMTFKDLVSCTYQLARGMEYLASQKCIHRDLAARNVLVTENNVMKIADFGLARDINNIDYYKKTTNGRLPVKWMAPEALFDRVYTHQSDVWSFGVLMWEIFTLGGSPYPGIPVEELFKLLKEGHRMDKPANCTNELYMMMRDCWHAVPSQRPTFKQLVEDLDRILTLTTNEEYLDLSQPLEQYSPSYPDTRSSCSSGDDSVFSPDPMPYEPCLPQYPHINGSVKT
T3 sequence (P22607 23-806): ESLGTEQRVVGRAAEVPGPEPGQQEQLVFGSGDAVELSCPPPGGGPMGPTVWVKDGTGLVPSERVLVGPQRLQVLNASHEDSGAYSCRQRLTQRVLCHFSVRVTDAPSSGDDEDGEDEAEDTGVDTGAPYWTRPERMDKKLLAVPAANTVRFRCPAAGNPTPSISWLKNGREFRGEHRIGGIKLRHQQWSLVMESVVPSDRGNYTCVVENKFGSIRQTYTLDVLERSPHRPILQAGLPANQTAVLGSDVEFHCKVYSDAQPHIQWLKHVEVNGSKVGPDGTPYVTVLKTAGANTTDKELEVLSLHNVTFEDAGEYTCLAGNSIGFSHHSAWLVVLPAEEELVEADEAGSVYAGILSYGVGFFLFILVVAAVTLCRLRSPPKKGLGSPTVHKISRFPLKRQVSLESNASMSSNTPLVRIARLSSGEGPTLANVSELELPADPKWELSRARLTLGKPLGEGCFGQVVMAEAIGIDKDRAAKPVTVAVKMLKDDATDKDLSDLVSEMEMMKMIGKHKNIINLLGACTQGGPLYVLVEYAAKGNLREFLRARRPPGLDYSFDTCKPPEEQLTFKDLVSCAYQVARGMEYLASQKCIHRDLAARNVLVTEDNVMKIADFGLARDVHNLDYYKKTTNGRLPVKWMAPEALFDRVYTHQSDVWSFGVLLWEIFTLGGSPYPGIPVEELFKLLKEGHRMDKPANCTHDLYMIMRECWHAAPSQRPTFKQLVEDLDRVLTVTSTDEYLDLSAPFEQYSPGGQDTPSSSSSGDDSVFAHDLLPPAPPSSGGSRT

IC50 (FGFR2) [nM] | IC50 (SNU16 cells; Homo sapiens, SNU-16, 72 h) [nM] | IC50 (SNU16 cells; 72 h, read-out: Cell SNU-16 IC50) [nM] | SMILES | Selectivity FGFR1/FGFR2 (FGFR1) | Selectivity FGFR3/FGFR2 (FGFR3)
< 5 | ≤ 10 |  | C=CC(=O)Nc1ccc(-c2c(-c3ccc(C(=O)NCC(F)(F)F)c(OC)c3)c3c(N)ncc(C#N)c3n2C2CC2)cc1 [Compound 351] | A+ (Selectivity of FGFR1/FGFR2 greater or equal to 500) | B (Selectivity of FGFR3/FGFR2 less than 100 but greater than or equal to 25)
< 5 | ≤ 10 |  | [2H]C([2H])([2H])n1c(-c2ccc(NC(=O)C=C)cc2)c(-c2ccc(C(=O)NCC(F)(F)F)c(OC)c2)c2c(N)ncc(C#N)c21 [Compound 355, 4-(2-(4-acrylamidophenyl)-4-amino-7-cyano-1-(methyl-d3)-1H-pyrrolo[3,2-c]pyridin-3-yl)-2-methoxy-N-(2,2,2-trifluoroethyl)benzamide] | A (Selectivity of FGFR1/FGFR2 less than 500 but greater than or equal to 300) | A+ (Selectivity of FGFR3/FGFR2 greater or equal to 150)
< 5 | ≤ 10 |  | C=C(F)C(=O)Nc1ccc(-c2nn3ncnc(N)c3c2-c2ccc(C(=O)NC3(C(F)(F)F)CC3)c(OC)c2)c(F)c1 [Compound 356] | A (Selectivity of FGFR1/FGFR2 less than 500 but greater than or equal to 300) | A (Selectivity of FGFR3/FGFR2 less than 150 but greater than or equal to 100)
< 5 | ≤ 10 |  | C=C(F)C(=O)Nc1ccc(-c2nn3ncnc(N)c3c2-c2ccc(C(=O)NC34CC(C3)C4)c(OC)c2)c(F)c1 [Compound 357, 4-(4-amino-6-(2-fluoro-4-(2-fluoroacryl amido)phenyl)pyrazolo[5,1-f][1,2,4]triazin-5-yl)-N-(bicyclo[1.1.1]pentan-1-yl)-2-methoxybenzamide] | A (Selectivity of FGFR1/FGFR2 less than 500 but greater than or equal to 300) | A+ (Selectivity of FGFR3/FGFR2 greater or equal to 150)
< 5 |  | ≤ 10 | C=C(F)C(=O)Nc1ccc(-c2nn3ncnc(N)c3c2-c2ccc(C(=O)NCC3(C(F)(F)F)CC3)c(OC)c2)c(F)c1 [Compound 358, 4-(4-amino-6-(2-fluoro-4-(2-fluoroacrylamido)phenyl)pyrazolo[5,1-f] [1,2,4]triazin-5-yl)-2-methoxy-N-((1-(trifluoromethyl)cyclo-propyl)methyl) benzamide] | A+ (Selectivity of FGFR1/FGFR2 greater or equal to 500) | A (Selectivity of FGFR3/FGFR2 less than 150 but greater than or equal to 100)
< 5 | ≤ 10 |  | C=C(F)C(=O)Nc1ccc(-c2nn3ncnc(N)c3c2-c2ccc(C(=O)NCC3(C(F)(F)F)CC3)c(OC)c2)c(F)c1 [Compound 361] | A (Selectivity of FGFR1/FGFR2 less than 500 but greater than or equal to 300) | A (Selectivity of FGFR3/FGFR2 less than 150 but greater than or equal to 100)
< 5 | ≤ 10 |  | C=CC(=O)Nc1ccc(-c2nn3ncnc(N)c3c2-c2ccc(Oc3cccc(C)n3)c(F)c2)cc1 [Compound 366] | A+ (Selectivity of FGFR1/FGFR2 greater or equal to 500) | A+ (Selectivity of FGFR3/FGFR2 greater or equal to 150)
< 5 | ≤ 10 |  | [2H]C([2H])([2H])Oc1cc(-c2c(-c3ccc(NC(=O)C(=C)F)cc3)nn3ncnc(N)c23)ccc1C(=O)NCC1(F)CC1 [Compound 372, 4-(4-amino-6-(4-(2-fluoroacrylamido)phe-nyl)pyrazolo[5,1-f][1,2,4]triazin-5-yl)-N-((1-fluorocyclo-propyl)methyl)-2-(methoxy-d3)benzamide] | A+ (Selectivity of FGFR1/FGFR2 greater or equal to 500) | A+ (Selectivity of FGFR3/FGFR2 greater or equal to 150)
> 10 | ≤ 10 |  | CC#CC(=O)Nc1ccc(-c2nn3ncnc(N)c3c2-c2ccc(C(=O)NC3(C(F)(F)F)CC3)c(OC)c2)cc1 [Compound 395] | A+ (Selectivity of FGFR1/FGFR2 greater or equal to 500) | B (Selectivity of FGFR3/FGFR2 less than 100 but greater than or equal to 25)
< 5 | ≤ 10 |  | C=CC(=O)Nc1ccc(-c2nn3ncnc(N)c3c2-c2ccc(Oc3nccc(CC)n3)c(F)c2)cc1 [Compound 400, N-(4-(4-amino-5-(4-((4-ethylpyrimidin-2-yl)oxy)-3-fluorophenyl)pyrazolo[5,1-f][1,2,4]triazin-6-yl)phenyl)acrylamide] | A+ (Selectivity of FGFR1/FGFR2 greater or equal to 500) | A+ (Selectivity of FGFR3/FGFR2 greater or equal to 150)
> 10 | ≤ 10 |  | C=CC(=O)Nc1ccc(-c2nn3ncnc(N)c3c2-c2ccc(Oc3ccn(C)n3)c(F)c2)cc1 [Compound 402, N-(4-(4-amino-5-(3-fluoro-4-((1-methyl-1H-pyrazol-3-yl)oxy)phenyl)pyrazolo [5,1-f][1,2,4]triazin-6-yl)phenyl)acrylamide] | A+ (Selectivity of FGFR1/FGFR2 greater or equal to 500) | A+ (Selectivity of FGFR3/FGFR2 greater or equal to 150)
< 5 | > 50 |  | C#CC(=O)Nc1ccc(-c2nn3ncnc(N)c3c2-c2ccc(Oc3cccc(C)n3)c(F)c2)cc1 [Compound 410] | A (Selectivity of FGFR1/FGFR2 less than 500 but greater than or equal to 300) | A (Selectivity of FGFR3/FGFR2 less than 150 but greater than or equal to 100)
< 5 | ≤ 10 |  | C=C(F)C(=O)Nc1ccc(-c2nn3ncnc(N)c3c2-c2ccc(C(=O)NC3(C(F)(F)F)CC3)c(OC)c2)c(OC)c1 [Compound 415] | B (Selectivity of FGFR1/FGFR2 less than 300 but greater than or equal to 200) | B (Selectivity of FGFR3/FGFR2 less than 100 but greater than or equal to 25)
< 5 | ≤ 10 |  | C=C(F)C(=O)Nc1ccc(-c2nn3ncnc(N)c3c2-c2ccc(C(=O)NC34CC(F)(C3)C4)c(OC)c2)c(OC)c1 [Compound 416, 4-(4-amino-6-(4-(2-fluoroacrylamido)-2-methoxyphenyl)pyrazolo[5,1-f][1,2,4]triazin-5-yl)-N-(3-fluorobicyclo[1.1.1]pentan-1-yl)-2-methoxybenzamide] | B (Selectivity of FGFR1/FGFR2 less than 300 but greater than or equal to 200) | B (Selectivity of FGFR3/FGFR2 less than 100 but greater than or equal to 25)
< 5 | ≤ 10 |  | C=C(F)C(=O)Nc1ccc(-c2nn3ncnc(N)c3c2-c2ccc(C(=O)NC34CC(C3)C4)c(OC)c2)c(OC)c1 [Compound 426, 4-(4-amino-6-(4-(2-fluoroacrylamido)-2-methoxyphenyl)pyrazolo[5,1-f][1,2,4]triazin-5-yl)-N-(bicyclo[1.1.1]pentan-1-yl)-2-methoxybenzamide] | A+ (Selectivity of FGFR1/FGFR2 greater or equal to 500) | A (Selectivity of FGFR3/FGFR2 less than 150 but greater than or equal to 100)
< 5 | ≤ 10 |  | C=C(F)C(=O)Nc1ccc(-c2nn3ncnc(N)c3c2-c2ccc(C(=O)NC34CC(F)(C3)C4)c(OC)c2)c(F)c1 [Compound 427, 4-(4-amino-6-(2-fluoro-4-(2-fluoroacryl-amido)phenyl)pyrazolo[5,1-f][1,2,4]triazin-5-yl)-N-(3-fluorobicyclo [1.1.1]pentan-1-yl)-2-methoxybenzamide] | A+ (Selectivity of FGFR1/FGFR2 greater or equal to 500) | A (Selectivity of FGFR3/FGFR2 less than 150 but greater than or equal to 100)
> 10 | 10 to 50 |  | C=CC(=O)Nc1ccc(-c2nn3ncnc(N)c3c2-c2ccc(Oc3nccc(N)n3)c(F)c2)cc1 [Compound 428] | A+ (Selectivity of FGFR1/FGFR2 greater or equal to 500) | A+ (Selectivity of FGFR3/FGFR2 greater or equal to 150)
5 to 10 | ≤ 10 |  | C=C(C)C(=O)Nc1ccc(-c2nn3ncnc(N)c3c2-c2ccc(C(=O)NC3(C(F)(F)F)CC3)c(OC)c2)c(F)c1 [Compound 429] | A+ (Selectivity of FGFR1/FGFR2 greater or equal to 500) | A+ (Selectivity of FGFR3/FGFR2 greater or equal to 150)
> 10 | ≤ 10 |  | C=CC(=O)Nc1ccc(-c2nn3ncnc(N)c3c2-c2ccc(C(=O)C3CCCCC3)c(OC)c2)cc1 [Compound 431, N-(4-(4-amino-5-(4-(cyclohexanecarbonyl)-3-methoxyphenyl)pyrazolo[5,1-f][1,2,4]triazin-6-yl)phenyl) acrylamide] | A+ (Selectivity of FGFR1/FGFR2 greater or equal to 500) | A+ (Selectivity of FGFR3/FGFR2 greater or equal to 150)
< 5 | ≤ 10 |  | C=C(F)C(=O)Nc1ccc(-c2nn3ncnc(N)c3c2-c2ccc(C(=O)NC3(C(F)(F)F)CC3)c(OC)c2)c(C(F)(F)F)c1 [Compound 432] | B (Selectivity of FGFR1/FGFR2 less than 300 but greater than or equal to 200) | B (Selectivity of FGFR3/FGFR2 less than 100 but greater than or equal to 25)
